Assay results taken from the supplement of paper PMC7695840.
Counter-ions that a name gives are not always drawn.

Assays:
[1] = test system: Staphylococcus aureus MW2 (mecA+); test: IC50 (growth, competition assay); settings: cefoxitin: subinhibitory
Summary of the method: (§1)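 Signals from DsRed (540/590) and GFP (485/520) were scaled on every plate between single-strain control medians, with No Treatment then set to 0.5. The cells were a 1:1 mix of pre-induced fluorescent S. aureus MW2 strains with and without the resistance gene, grown unshaken for 20 h at 37 °C and 90% humidity in LB in 1536-well plates under a subinhibitory drug dose set each day. Each strain's IC50 was defined as the dose halving the No Treatment signal, or the maximal signal.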

[2] = test system: Staphylococcus aureus MW2 delta-mecA (mecA-); test: IC50 (growth, competition assay); settings: cefoxitin: subinhibitory
Summary of the method: as §1

For `C/C(=C\C(=O)OCCCCCCCCC(=O)O)C[C@@H]1OC[C@H](C[C@@H]2O[C@H]2[C@@H](C)[C@H](C)O)[C@@H](O)[C@H]1O` [BACTROBAN], the IC50 ([1]; fluorescent label: DsRed) was < 9.85 µM, the IC50 ([1]; fluorescent label: GFP) was < 9.85 µM and the IC50 ([2]; fluorescent label: DsRed) was < 9.85 µM. The IC50 ([2]; fluorescent label: GFP) was < 9.85 µM.
For `Cc1cc(Nc2nc(N[C@@H](C)c3ccc(F)cc3)c(C#N)cc2F)n[nH]1` [AZ 960], the IC50 ([1]; fluorescent label: DsRed) was 110 µM, the IC50 ([1]; fluorescent label: GFP) was 112 µM and the IC50 ([2]; fluorescent label: DsRed) was 2.4 µM. It also gave an IC50 ([2]; fluorescent label: GFP) of 1.67 µM.
`COC1=C2C[C@@H](C)C[C@H](OC)[C@H](O)[C@@H](C)/C=C(\C)[C@H](OC(N)=O)[C@@H](OC)/C=C\C=C(/C)C(=O)NC(=CC1=O)C2=O` [Geldanamycin] was tested, and the IC50 ([1]; fluorescent label: DsRed) was < 9.85 µM, the IC50 ([1]; fluorescent label: GFP) was < 9.85 µM and the IC50 ([2]; fluorescent label: DsRed) was < 9.85 µM. For the same molecule, the IC50 ([2]; fluorescent label: GFP) was < 9.85 µM.
`CO/N=C(\C(=O)N[C@@H]1C(=O)N2C(C(=O)O)=C(COC(C)=O)CS[C@H]12)c1csc(N)n1` [CLAFORAN] was tested, and the IC50 ([1]; fluorescent label: DsRed) was 15.6 µM, the IC50 ([1]; fluorescent label: GFP) was 15 µM and the IC50 ([2]; fluorescent label: DsRed) was < 9.85 µM. For the same molecule, the IC50 ([2]; fluorescent label: GFP) was < 9.85 µM.
`Cc1c(-c2ccc(O)cc2)n(Cc2ccc(OCCN3CCCCCC3)cc2)c2ccc(O)cc12` [Bazedoxifene HCl] showed an IC50 ([1]; fluorescent label: DsRed) of 56.8 µM, an IC50 ([1]; fluorescent label: GFP) of 56.6 µM and an IC50 ([2]; fluorescent label: DsRed) of 13.5 µM. For the same molecule, the IC50 ([2]; fluorescent label: GFP) was 28.3 µM.
With `COc1cccc(OC)c1C(=O)N[C@@H]1C(=O)N2[C@@H]1SC(C)(C)[C@@H]2C(=O)O` [STAPHCILLIN] the IC50 ([1]; fluorescent label: DsRed) was < 9.85 µM, the IC50 ([1]; fluorescent label: GFP) was < 9.85 µM and the IC50 ([2]; fluorescent label: DsRed) was < 9.85 µM. The IC50 ([2]; fluorescent label: GFP) was < 9.85 µM.
In the case of `CC1(C)S[C@@H]2[C@H](NC(=O)C(C(=O)O)c3ccccc3)C(=O)N2[C@H]1C(=O)O` (stereo not given in full) [Carbenicillin disodium], the IC50 ([1]; fluorescent label: DsRed) is reported as 20.8 µM, the IC50 ([1]; fluorescent label: GFP) is reported as 42.1 µM and the IC50 ([2]; fluorescent label: DsRed) is reported as < 9.85 µM. The IC50 ([2]; fluorescent label: GFP) was < 9.85 µM.
`CC(C)(Sc1ccc(CCN(CCCCC2CCCCC2)C(=O)NC2CCCCC2)cc1)C(=O)O` [GW7647] was tested, and the IC50 ([1]; fluorescent label: DsRed) was 14.3 µM, the IC50 ([1]; fluorescent label: GFP) was 13.1 µM and the IC50 ([2]; fluorescent label: DsRed) was < 9.85 µM. The IC50 ([2]; fluorescent label: GFP) was < 9.85 µM.
With `Cc1onc(-c2ccccc2Cl)c1C(=O)N[C@@H]1C(=O)N2[C@@H]1SC(C)(C)[C@@H]2C(=O)O` [Cloxacillin sodium] the IC50 ([1]; fluorescent label: DsRed) was < 9.85 µM, the IC50 ([1]; fluorescent label: GFP) was < 9.85 µM and the IC50 ([2]; fluorescent label: DsRed) was < 9.85 µM. For the same molecule, the IC50 ([2]; fluorescent label: GFP) was < 9.85 µM.
With `COC(=O)Nc1nc2cc(C(=O)c3cccs3)ccc2[nH]1` [Nocodazole] the IC50 ([1]; fluorescent label: DsRed) was 24.4 µM, the IC50 ([1]; fluorescent label: GFP) was 29 µM and the IC50 ([2]; fluorescent label: DsRed) was < 9.85 µM. The IC50 ([2]; fluorescent label: GFP) was < 9.85 µM.
For `O=c1[nH]c(=O)n([C@H]2C[C@H](O)[C@@H](CO)O2)cc1C(F)(F)F` [VIROPTIC], the IC50 ([1]; fluorescent label: DsRed) was 59 µM, the IC50 ([1]; fluorescent label: GFP) was 108 µM and the IC50 ([2]; fluorescent label: DsRed) was < 9.85 µM. The IC50 ([2]; fluorescent label: GFP) was < 9.85 µM.
With `O=[N+]([O-])C=Cc1ccc2c(c1)OCO2` [MNS] the IC50 ([1]; fluorescent label: DsRed) was 20.5 µM, the IC50 ([1]; fluorescent label: GFP) was 27.1 µM and the IC50 ([2]; fluorescent label: DsRed) was < 9.85 µM. The IC50 ([2]; fluorescent label: GFP) was < 9.85 µM.
With `O=C(Nc1cc(C(F)(F)F)cc(C(F)(F)F)c1)c1cc(Cl)ccc1O` [IMD0354] the IC50 ([1]; fluorescent label: DsRed) was < 9.85 µM, the IC50 ([1]; fluorescent label: GFP) was < 9.85 µM and the IC50 ([2]; fluorescent label: DsRed) was < 9.85 µM. The IC50 ([2]; fluorescent label: GFP) was < 9.85 µM.
`CN(C)c1ccc(O)c2c1C[C@H]1C[C@H]3[C@H](N(C)C)C(O)=C(C(N)=O)C(=O)[C@@]3(O)C(O)=C1C2=O` [SOLODYN] was tested, and the IC50 ([1]; fluorescent label: DsRed) was < 9.85 µM, the IC50 ([1]; fluorescent label: GFP) was < 9.85 µM and the IC50 ([2]; fluorescent label: DsRed) was < 9.85 µM. The IC50 ([2]; fluorescent label: GFP) was < 9.85 µM.
With `CCCCCCCCCCCCCCCC(=O)OC[C@H](O)[C@H]1OC(=O)C(O)=C1O` [EMPROVE] the IC50 ([1]; fluorescent label: DsRed) was 52.5 µM, the IC50 ([1]; fluorescent label: GFP) was 87.6 µM and the IC50 ([2]; fluorescent label: DsRed) was < 9.85 µM. For the same molecule, the IC50 ([2]; fluorescent label: GFP) was < 9.85 µM.
With `CC(C)=CCCC1(C)C=Cc2c(O)c3c(c(CC=C(C)C)c2O1)OC12C(=CCCC1C(C)(C)O[C@@]2(C/C=C(\C)C(=O)O)C(=O)O)C3=O` (stereo not given in full) [GARCINOLIC ACID] the IC50 ([1]; fluorescent label: DsRed) was < 9.85 µM, the IC50 ([1]; fluorescent label: GFP) was 14.8 µM and the IC50 ([2]; fluorescent label: DsRed) was < 9.85 µM. The IC50 ([2]; fluorescent label: GFP) was < 9.85 µM.
For `CN[C@H]1CC[C@@H](c2ccc(Cl)c(Cl)c2)c2ccccc21` [Sertraline hydrochloride], the IC50 ([1]; fluorescent label: DsRed) was 96.4 µM, the IC50 ([1]; fluorescent label: GFP) was 77.9 µM and the IC50 ([2]; fluorescent label: DsRed) was 22.8 µM. The IC50 ([2]; fluorescent label: GFP) was 33.7 µM.
In the case of `CC(C)(C)CC(C)(C)c1ccc(OCCOCC[N+](C)(C)Cc2ccccc2)cc1` [PHEMERIDE], the IC50 ([1]; fluorescent label: DsRed) is reported as < 9.85 µM, the IC50 ([1]; fluorescent label: GFP) is reported as < 9.85 µM and the IC50 ([2]; fluorescent label: DsRed) is reported as < 9.85 µM. The IC50 ([2]; fluorescent label: GFP) was < 9.85 µM.
With `CC1=CC(=O)c2c(O)cccc2C1=O` [PLUMBAGIN] the IC50 ([1]; fluorescent label: DsRed) was 18 µM, the IC50 ([1]; fluorescent label: GFP) was 38.3 µM and the IC50 ([2]; fluorescent label: DsRed) was < 9.85 µM. For the same molecule, the IC50 ([2]; fluorescent label: GFP) was < 9.85 µM.
For `Cn1nnnc1SCC1=C(C(=O)O)N2C(=O)[C@@H](NC(=O)[C@H](OC=O)c3ccccc3)[C@H]2SC1` [MANDOL], the IC50 ([1]; fluorescent label: DsRed) was 21.3 µM, the IC50 ([1]; fluorescent label: GFP) was 22.2 µM and the IC50 ([2]; fluorescent label: DsRed) was < 9.85 µM. The IC50 ([2]; fluorescent label: GFP) was < 9.85 µM.
`COc1cc2c(c(OC)c1OC)-c1ccc(=O)c(O)cc1[C@@H](NC(C)=O)CC2` [COLCHICEINE] gave an IC50 ([1]; fluorescent label: DsRed) of 81.3 µM, an IC50 ([1]; fluorescent label: GFP) of 84.6 µM and an IC50 ([2]; fluorescent label: DsRed) of 45.5 µM. It also gave an IC50 ([2]; fluorescent label: GFP) of 51.2 µM.
In the case of `CCCCCCCCCCCCCCCC[n+]1ccccc1` [CEPACOL], the IC50 ([1]; fluorescent label: DsRed) is reported as < 9.85 µM, the IC50 ([1]; fluorescent label: GFP) is reported as < 9.85 µM and the IC50 ([2]; fluorescent label: DsRed) is reported as < 9.85 µM. The IC50 ([2]; fluorescent label: GFP) was < 9.85 µM.
`O=C(/C=C/c1ccccc1)c1ccc(O)cc1` [4'-HYDROXYCHALCONE] was tested, and the IC50 ([1]; fluorescent label: DsRed) was 77.3 µM, the IC50 ([1]; fluorescent label: GFP) was 101 µM and the IC50 ([2]; fluorescent label: DsRed) was 19.7 µM. It also gave an IC50 ([2]; fluorescent label: GFP) of 19.6 µM.
`CCCCCCCCCCCCCCCC[N+](C)(C)CCN(Cc1ccc(OC)cc1)c1ncccn1` [THONZIDE] was tested, and the IC50 ([1]; fluorescent label: DsRed) was < 9.85 µM, the IC50 ([1]; fluorescent label: GFP) was 14.9 µM and the IC50 ([2]; fluorescent label: DsRed) was < 9.85 µM. For the same molecule, the IC50 ([2]; fluorescent label: GFP) was < 9.85 µM.
Molecule `CC(=O)OCC(=O)[C@H]1CC[C@H]2[C@@H]3CCC4=CC(=O)CC[C@]4(C)[C@H]3CC[C@]12C` [PERCOTEN] has an IC50 ([1]; fluorescent label: DsRed) of 144 µM, an IC50 ([1]; fluorescent label: GFP) of 62.6 µM and an IC50 ([2]; fluorescent label: DsRed) of 26.6 µM. The IC50 ([2]; fluorescent label: GFP) was > 150 µM.
`CC1(C)S[C@@H]2[C@H](NC(=O)[C@H](NC(=O)N3CCNC3=O)c3ccccc3)C(=O)N2[C@H]1C(=O)O` [AZLIN] was tested, and the IC50 ([1]; fluorescent label: DsRed) was 32.2 µM, the IC50 ([1]; fluorescent label: GFP) was 47.2 µM and the IC50 ([2]; fluorescent label: DsRed) was < 9.85 µM. For the same molecule, the IC50 ([2]; fluorescent label: GFP) was < 9.85 µM.
`CC(C)=CCC[C@]1(C)C=Cc2c(O)c3c(c(CC=C(C)C)c2O1)O[C@]12C(=C[C@@H]4C[C@H]1C(C)(C)O[C@@]2(C/C=C(/C)C(=O)O)C4=O)C3=O` [GAMBOGIC ACID] was tested, and the IC50 ([1]; fluorescent label: DsRed) was < 9.85 µM, the IC50 ([1]; fluorescent label: GFP) was < 9.85 µM and the IC50 ([2]; fluorescent label: DsRed) was < 9.85 µM. The IC50 ([2]; fluorescent label: GFP) was < 9.85 µM.
With `CCCCC[C@H](CC(=O)NO)C(=O)N[C@H](C(=O)N1CCC[C@H]1CO)C(C)C` [ACTINONIN] the IC50 ([1]; fluorescent label: DsRed) was 27.8 µM, the IC50 ([1]; fluorescent label: GFP) was 37.7 µM and the IC50 ([2]; fluorescent label: DsRed) was < 9.85 µM. For the same molecule, the IC50 ([2]; fluorescent label: GFP) was < 9.85 µM.
In the case of `C[C@H]1COc2c(N3CCN(C)CC3)c(F)cc3c(=O)c(C(=O)O)cn1c23` [Levofloxacin (Levaquin)], the IC50 ([1]; fluorescent label: DsRed) is reported as < 0.498 µM, the IC50 ([1]; fluorescent label: GFP) is reported as < 0.498 µM and the IC50 ([2]; fluorescent label: DsRed) is reported as < 0.498 µM. The IC50 ([2]; fluorescent label: GFP) was < 0.498 µM.
`O=S1(=O)N(CCN2CC=C(c3c[nH]c4cc(F)ccc34)CC2)c2cccc3c2N1CCC3` [LY-367,265] was tested, and the IC50 ([1]; fluorescent label: DsRed) was 39 µM, the IC50 ([1]; fluorescent label: GFP) was 45 µM and the IC50 ([2]; fluorescent label: DsRed) was < 9.85 µM. For the same molecule, the IC50 ([2]; fluorescent label: GFP) was 13.1 µM.
